Data set [1] deals with T1, Cytosolic phospholipase A2 (Homo sapiens, UniProt P47712).
T1 sequence (P47712 whole entry): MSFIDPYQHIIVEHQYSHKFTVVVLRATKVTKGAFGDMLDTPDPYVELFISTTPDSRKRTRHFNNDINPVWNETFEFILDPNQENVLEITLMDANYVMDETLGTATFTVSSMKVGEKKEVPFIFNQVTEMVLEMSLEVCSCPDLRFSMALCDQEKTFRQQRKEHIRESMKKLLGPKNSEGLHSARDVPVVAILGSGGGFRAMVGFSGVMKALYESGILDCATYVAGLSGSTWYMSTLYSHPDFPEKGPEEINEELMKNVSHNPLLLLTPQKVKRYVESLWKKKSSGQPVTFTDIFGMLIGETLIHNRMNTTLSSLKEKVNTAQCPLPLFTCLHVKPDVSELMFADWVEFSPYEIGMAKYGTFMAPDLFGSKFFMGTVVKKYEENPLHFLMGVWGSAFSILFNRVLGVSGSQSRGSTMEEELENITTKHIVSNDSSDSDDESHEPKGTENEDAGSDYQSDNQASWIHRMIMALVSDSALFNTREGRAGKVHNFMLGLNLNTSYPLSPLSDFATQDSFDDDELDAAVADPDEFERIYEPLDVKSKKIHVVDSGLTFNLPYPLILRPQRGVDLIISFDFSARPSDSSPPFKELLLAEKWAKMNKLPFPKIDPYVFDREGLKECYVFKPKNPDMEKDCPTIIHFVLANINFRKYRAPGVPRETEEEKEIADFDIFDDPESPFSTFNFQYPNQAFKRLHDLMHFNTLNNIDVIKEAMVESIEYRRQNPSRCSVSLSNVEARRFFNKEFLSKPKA
Nature of the data set: In vitro inhibition of cystolic phospholipase A2 alpha.

Data set [2] in a line: Oral bioavailability in rat (dose 10 mg/kg). The following applies: in vivo. Format: ADME, organism-based.
The species entered for a further data set is Homo sapiens. The data set can be described thus: Inhibitory concentration against arachidonic acid release determined in human neutrophils PMN assay. Format: functional.
The target of data set [3] is T1, Cytosolic phospholipase A2. The data set can be described thus: Inhibitory concentration against cystolic phospholipase A2 alpha receptor (c-PLA2 alpha) using coumarin assay.

In data set [1], `COc1cc(C(=O)O)ccc1Cc1cn(C(c2ccccc2)c2ccccc2)c2ccc(NC(=O)OC3CCCC3)cc12` yielded an IC50 of 5000 nM.
The same measure, in the same setting: under `COc1cc(C(=O)O)ccc1Cc1cn(C(c2ccccc2)c2ccccc2)c2ccc(NS(C)(=O)=O)cc12` stands 20000 nM; under `COc1cc(C(=O)O)ccc1Cc1cn(C(c2ccccc2)c2ccccc2)c2ccc(S(C)(=O)=O)cc12`, 2000 nM; under `COc1cc(C(=O)O)ccc1Cc1cn(C(c2ccccc2)c2ccccc2)c2ccc(F)cc12`, 1000 nM.
Turning to `COc1cc(C(=O)O)ccc1Cc1cn(C(c2ccccc2)c2ccccc2)c2cccc(Cl)c12`, in data set [1], the midpoint of inhibition, the IC50, lay at 4500 nM.
`COc1cc(C(=O)O)ccc1Cc1cn(C(c2ccccc2)c2ccccc2)c2cc(Cl)ccc12`: in data set [2], the bioavailability turned out to be 63%. In data set [1], this compound yielded an IC50 of 800 nM.
`COc1cc(C(=O)O)ccc1Cc1cn(C(c2ccccc2)c2ccccc2)c2ccccc12` displayed an IC50 in data set [1] of 3600 nM.
Still for that read-out and setting: in the case of `COc1cc(C(=O)NS(=O)(=O)c2ccccc2C)ccc1Cc1cn(Cc2ccncc2)c2ccc(NC(=O)OC3CCCC3)cc12` it was 38000 nM.
The same measure, in the same setting: under `CCCCNC(=O)Nc1ccc2c(c1)c(Cc1ccc(C(=O)O)cc1OC)cn2C(c1ccccc1)c1ccccc1` stands 15000 nM.
On to `COc1cc(C(=O)O)ccc1Cc1cn(C(c2ccccc2)c2ccccc2)c2ccc(Br)cc12`, for which the bioavailability in data set [2] was found to be 16%. The IC50 was 1200 nM in the data set filed under Homo sapiens and 600 nM in data set [3].
Take `COc1cc(C(=O)NS(=O)(=O)c2ccccc2C)ccc1Cc1cn(C2CCCC2)c2ccc(NC(=O)OC3CCCC3)cc12`: in data set [1], it took 17000 nM to reach half-maximal inhibition (IC50).
Same read-out and setting: under `COc1cc(C(=O)O)ccc1Cc1cn(C(c2ccccc2)c2ccccc2)c2ccc(N)cc12` stands 41000 nM.
The same measure, in the same setting: in the case of `COc1cc(C(=O)NS(=O)(=O)c2ccccc2C)ccc1Cc1cn(CC2CC2)c2ccc(NC(=O)OC3CCCC3)cc12` it was 20000 nM.
`COc1cc(C(=O)O)ccc1Cc1cn(C(c2ccccc2)c2ccccc2)c2ccc(C)cc12`: the bioavailability in data set [2] is 38%. For the same compound, the IC50 in data set [3] is 900 nM.
In data set [1], `COc1cc(C(=O)O)ccc1Cc1cn(C(c2ccccc2)c2ccccc2)c2ccc(N(C)C)cc12` gave an IC50 of 24000 nM.
In the case of `COc1cc(C(=O)O)ccc1Cc1cn(C(c2ccccc2)c2ccccc2)c2ccc(Cl)cc12`, the bioavailability in data set [2] was 22%. Moreover, the values for the IC50 (in the data set filed under Homo sapiens; in data set [3]) were 1800 nM and 400 nM, respectively.
In the case of `COc1cc(C(=O)O)ccc1Cc1cn(C(c2ccccc2)c2ccccc2)c2c(Cl)cccc12`, it took 2100 nM to reach half-maximal inhibition in data set [1] (IC50).
For `COc1cc(C(=O)O)ccc1Cc1cn(C(c2ccccc2)c2ccccc2)c2ccc([N+](=O)[O-])cc12`, the IC50 is 1800 nM in the data set listed under Homo sapiens and 400 nM in data set [3].
Turning to `COc1ccc2c(c1)c(Cc1ccc(C(=O)O)cc1OC)cn2C(c1ccccc1)c1ccccc1`, the IC50 in data set [1] turned out to be 1900 nM.
On the same count and under the same terms, under `COc1cc(C(=O)NS(=O)(=O)c2ccccc2C)ccc1Cc1cn(C(c2ccccc2)c2ccccc2)c2ccc(NC(=O)OC3CCCC3)cc12` stands 6000 nM.
For the compound `COc1cc(C(=O)O)ccc1Cc1cn(C(c2ccccc2)c2ccccc2)c2ccc(C#N)cc12`, the bioavailability in data set [2] is 19%. Further, the IC50 in the data set filed under Homo sapiens stood at 1300 nM; in data set [3], 800 nM.
In data set [1], `COc1cc(C(=O)NS(=O)(=O)c2ccccc2C)ccc1Cc1cn(C)c2ccc(NC(=O)OC3CCCC3)cc12` [ZAFIRLUKAST] displayed an IC50 of 85000 nM.

As usually defined, the IC50 is the concentration that gives 50% inhibition. The low end stands for greater potency, the high end for weaker potency. One may read the bioavailability as dose-corrected exposure relative to a reference, in per cent. Read a high bioavailability as good availability.

The record behind these values is ChEMBL document CHEMBL1145756, “Structure-activity relationships of indole cytosolic phospholipase A(2)alpha inhibitors: substrate mimetics” (Bioorg Med Chem Lett, 2003).
